From ChEMBL document CHEMBL5729105, “CD73 inhibitors” (2022)

Target: 5'-nucleotidase (Homo sapiens, UniProt P21589)
Test: Biochemical Assay: Assay Reaction ConditionsAssay Volume: 70 μlReaction Volume: 50 μlCD73: 0.3208 nMAMP: 15 μMAssay Buffer: 25 mM Tris-HCL, pH 7.4, 0.01% Brij-35, 0.01% BSA, 5 mM MgCl2Assay Procedure:Used 384 clear plate.Made dose titration of testing compounds in assay buffer, 10 points ½ log titrations in duplicates starting at 100 μM.Added 25 μl of CD73 to each well for a final concentration of 320 pM.Incubated at RT for 15 min.Added 25 μl of AMP to each well for a final concentration of 15 μM.Incubated at RT for 10 min.Added 10 μl of Malachite Green Reagent A, incubate at RT for 10 min.Added 10 of Malachite Green Reagent B, incubate at RT for 45 min.Read the Absorbance on Envision plate reader using excitation filter: Cy5 620 nM.The ability of the compounds disclosed herein to inhibit CD73 activity was quantified and the respective IC50 values were determined.

Sequence of 5'-nucleotidase (P21589 whole entry): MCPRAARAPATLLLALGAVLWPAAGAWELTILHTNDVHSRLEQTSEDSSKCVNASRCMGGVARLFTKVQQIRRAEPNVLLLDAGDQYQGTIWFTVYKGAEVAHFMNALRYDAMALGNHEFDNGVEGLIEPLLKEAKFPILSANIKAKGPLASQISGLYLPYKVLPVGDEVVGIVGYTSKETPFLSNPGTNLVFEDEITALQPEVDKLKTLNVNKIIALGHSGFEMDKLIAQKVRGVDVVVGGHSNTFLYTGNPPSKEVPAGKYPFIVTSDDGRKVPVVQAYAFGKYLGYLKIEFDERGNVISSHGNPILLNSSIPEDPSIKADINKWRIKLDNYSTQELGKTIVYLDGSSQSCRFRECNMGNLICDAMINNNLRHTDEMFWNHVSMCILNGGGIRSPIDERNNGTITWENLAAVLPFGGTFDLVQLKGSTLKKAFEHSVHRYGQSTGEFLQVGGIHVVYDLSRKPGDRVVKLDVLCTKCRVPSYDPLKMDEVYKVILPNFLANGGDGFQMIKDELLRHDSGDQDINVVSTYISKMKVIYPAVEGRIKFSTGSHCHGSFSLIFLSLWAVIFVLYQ

SMILES: O=P(O)(O)[C@H](CO)OC[C@H]1O[C@@H](n2ncc3c(NC4CCCC4)nc(Cl)nc32)[C@H](O)[C@@H]1O (single isomer, unassigned)
- IC50: < 100 nM
